Each block holds one molecule with its values, some of them ahead of it.
What was measured:
[1] = molecular target: T1, MMP-9 (Homo sapiens, UniProt P14780); assay: Gelatin zymography of medium from treated U251 glioma cells, MMP-9; assay type: cell-based; conditions: for inhibition of MMP-9 activity/secretion: 4 mM WR-1065 (SH); for reduction of MMP-9 activity/secretion: 10 mM
T1 construct: Medium was isolated at the indicated times, centrifuged at 1000 rpm for 5 min to remove debris; endogenous in cells; host or cells: U251 human glioma cells (serum-free conditioned medium)
Method: (§1) U251 Glioma Cells were grown to confluence in 6-well plates. Medium was removed, the cells washed twice with 37° C. PBS, and serum-free medium added. The cells were treated as follows: • Control—24 h, 48 h 72 h • 40 μM SH—24 h, 48 h 72 h (continuous exposure) • 10 ng/ml TNFα—24 h, 48 h, 72 h (continuous exposure). Medium was isolated at the indicated times, centrifuged at 1000 rpm for 5 min to remove debris, and stored at −80° C. until use. Protein was quantitated using the Bradford method. 252 ng of protein was loaded on 10% zymogram (gelatin) gels (Novex, San Diego, Calif.) and electrophoresed at 125 volts for 90 min in Tris-Glycine SDS buffer. After running, the gels were incubated in zymogram renaturing buffer (100 ml) for 30 min at room temperature with gentle agitation. The buffer was removed and fresh zymogram developing buffer (100 ml) added and the gels incubated at 37° C. overnight with gentle agitation. The following day the gels were stained with 0.5% coomassie blue R-250 for 30 min, and destained. Areas of protease activity show up as clear bands. This assay will detect MMP-2 and MMP-9.
(§2) Same protocol as above. Treatment conditions were as follows: • Control—24 h • 4 mM SH—24 h (continuous exposure) • 10 mM L-NAC—24 h (continuous exposure) • 10 mM L-NAC—24 h (continuous exposure) • 10 mM Captopril—24 h (continuous exposure) • 50 mM EDTA—24 h (chelator) • 4 mM SH+50 mM EDTA—24 h • 10 mM L-NAC+50 mM EDTA—24 h • 10 mM D-NAC+50 mM EDTA—24 h • 10 mM Captopril+50 mM EDTA—24 h • 40 μM SH—24 h • 10 ng/ml TNFα—24 h

[2] = molecular target: T2, MMP-2 (Homo sapiens, UniProt P08253); assay: Gelatin zymography of medium from treated U251 glioma cells, MMP-2; assay type: cell-based; conditions: for inhibition of MMP-2 activity/secretion: 4 mM WR-1065 (SH); for inhibition of MMP-2 activity/secretion / reduction of MMP-2 activity/secretion: 24 h; for reduction of MMP-2 activity/secretion: 10 mM
T2 construct: Medium was isolated at the indicated times, centrifuged at 1000 rpm for 5 min to remove debris; endogenous in cells; host or cells: U251 human glioma cells (serum-free conditioned medium)
T2 sequence (P08253 110-660): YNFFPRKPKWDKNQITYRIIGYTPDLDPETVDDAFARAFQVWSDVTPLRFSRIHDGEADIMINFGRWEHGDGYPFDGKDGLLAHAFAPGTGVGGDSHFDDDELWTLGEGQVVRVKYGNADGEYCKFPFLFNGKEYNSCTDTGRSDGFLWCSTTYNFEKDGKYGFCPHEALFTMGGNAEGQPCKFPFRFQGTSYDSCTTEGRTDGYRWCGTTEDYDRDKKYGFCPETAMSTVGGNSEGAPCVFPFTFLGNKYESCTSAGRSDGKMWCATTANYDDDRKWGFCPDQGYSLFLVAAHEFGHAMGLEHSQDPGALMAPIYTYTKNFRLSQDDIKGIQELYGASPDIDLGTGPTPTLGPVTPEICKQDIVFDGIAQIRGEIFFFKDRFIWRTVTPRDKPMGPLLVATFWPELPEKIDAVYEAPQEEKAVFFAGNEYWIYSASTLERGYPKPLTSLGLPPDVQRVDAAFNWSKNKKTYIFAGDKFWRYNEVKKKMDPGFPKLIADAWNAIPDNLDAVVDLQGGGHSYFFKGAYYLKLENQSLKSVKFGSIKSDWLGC
Method: as §1, §2

[3] = tested on: MnSOD gene expression; assay: MnSOD gene expression in glioma cells (Northern blot); assay type: cell-based, human
From the text: FIG. 6. Effect of Amifostine on MnSOD Expression. Kinetics of manganese superoxide dismutase (MnSOD) gene expression induced in human glioma tumor cells as a function of time by WR1065, the active form of amifostine, are presented for comparison. Also included in the upper right hand corner is a representative Northern blot used to quantitate gene expression. Gene expression was induced over 3-fold as compared to untreated controls.
As previously discussed, manganese superoxide dismutase (MnSOD) has been identified as important anti-oxidant gene whose expression reduces the malignant/metastatic phenotype of cancer cells (Safford et al., 1995). Tumor cells are relatively lower in MnSOD than are normal cells. Increasing MnSOD in tumor cells causes them to loose their ability to be metastatic. As described in FIG. 6, exposure of tumor cells to WR-1065 leads to enhanced gene expression of MnSOD. […] The peak level of MnSOD expression was almost twice that observed in normal human endothelial cells exposed to WR-1065.

[4] = TNFα 10 ng/ml, continuous exposure

T1 sequence (P14780 94-707): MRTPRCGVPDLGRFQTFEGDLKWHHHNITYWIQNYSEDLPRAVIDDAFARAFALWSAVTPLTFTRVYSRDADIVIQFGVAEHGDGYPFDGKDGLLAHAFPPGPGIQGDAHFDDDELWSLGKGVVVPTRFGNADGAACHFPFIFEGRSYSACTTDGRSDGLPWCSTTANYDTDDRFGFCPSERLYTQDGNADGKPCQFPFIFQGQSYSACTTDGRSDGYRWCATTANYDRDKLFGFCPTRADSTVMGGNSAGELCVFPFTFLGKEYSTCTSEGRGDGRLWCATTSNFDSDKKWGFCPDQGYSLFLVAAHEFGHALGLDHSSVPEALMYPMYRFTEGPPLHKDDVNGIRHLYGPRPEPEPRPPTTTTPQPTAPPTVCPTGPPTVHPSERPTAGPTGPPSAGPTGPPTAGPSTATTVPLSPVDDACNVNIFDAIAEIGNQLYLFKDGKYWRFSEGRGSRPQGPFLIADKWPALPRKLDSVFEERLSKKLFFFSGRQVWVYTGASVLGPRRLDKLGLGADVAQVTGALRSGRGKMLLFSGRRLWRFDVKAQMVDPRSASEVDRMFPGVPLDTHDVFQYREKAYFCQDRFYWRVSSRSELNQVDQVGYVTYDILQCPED

- ability to affect MMP-9 activity at 48 h and 72 h ([1]; 40 μM SH, continuous exposure): lost
- reduction of MMP-9 activity relative to control ([1]; 40 μM WR-1065 (SH), 24 h): 5%
- inhibition of MMP-9 activity/secretion ([1]; 24 h): completely inhibiting
- inhibition of MMP-9 activity/secretion ([1]; 24 h, listed as SH): completely inhibited
- ability to reduce MMP-2 secretion at 48 h and 72 h ([2]; 40 μM SH, continuous exposure): lost
- reduction of MMP-2 activity/secretion relative to control ([2]; 40 μM WR-1065 (SH), 24 h (b119 prints 45 h)): 45%
- MMP-2 activity, of control levels ([2]; 40 μM, 24 h exposure): 55%
- inhibition of MMP-2 activity/secretion [2]: completely inhibiting
- inhibition of MMP-2 activity/secretion ([2]; listed as SH): completely inhibited
Molecule: NCCCNCCS [WR-1065, 2-[(aminopropyl)amino]ethanethiol]
- peak level of MnSOD expression relative to normal human endothelial cells exposed to WR-1065 ([3]; U87 glioma cells versus normal human endothelial cells): almost twice
- MnSOD gene expression during an additional 12 h ([3]; human glioma U87 cells, 12 to 24 h): remained at that elevated level
- MnSOD gene expression enhanced ([3]; human glioma U87 cells, after 12 h): 2.5 fold
- MnSOD gene expression induced as compared to untreated controls ([3]; human glioma tumor cells, FIG. 6 legend): over 3 fold

- reduction of MMP-9 activity/secretion ([1]; 24 h): 85%
- reduction of MMP-2 activity/secretion [2]: 74%
Molecule: CC(=O)N[C@H](CS)C(=O)O [D-NAC]

Molecule: C[C@H](CS)C(=O)N1CCC[C@H]1C(=O)O [Captopril]
- reduction of MMP-9 activity/secretion ([1]; 24 h): completely inhibited
- reduction of MMP-2 activity/secretion [2]: completely inhibited

- MMP-9 activity at 48 h and 72 h [1, 4]: continued to cause enhanced activity
- suppression of MMP-2 secretion at 48 h and 72 h [2, 4]: still able to suppress
Molecule: Tumor Necrosis Factor alpha [TNFα]
